# Experimental data published in ChEMBL document CHEMBL5032530, “Discovery of Benzocyclic Sulfone Derivatives as Potent CXCR2 Antagonists for Cancer Immunotherapy” (J Med Chem, 2021).
# Calls of active or inactive are those of the source. No cut-off for these calls is given here.
# How the values were obtained:
# [1] = target: T1, C-X-C chemokine receptor type 2 (Homo sapiens, UniProt P25025); experiment: Antagonist activity at human CXCR2 expressed in HEK293 cells assessed as inhibition of CXCL8-induced beta-arrestin recruitment preincubated for 30 mins followed by addition of agonist incubated for 90 mins by beta arrestin assay; type: functional, cell-based
# T1 sequence (P25025 whole entry): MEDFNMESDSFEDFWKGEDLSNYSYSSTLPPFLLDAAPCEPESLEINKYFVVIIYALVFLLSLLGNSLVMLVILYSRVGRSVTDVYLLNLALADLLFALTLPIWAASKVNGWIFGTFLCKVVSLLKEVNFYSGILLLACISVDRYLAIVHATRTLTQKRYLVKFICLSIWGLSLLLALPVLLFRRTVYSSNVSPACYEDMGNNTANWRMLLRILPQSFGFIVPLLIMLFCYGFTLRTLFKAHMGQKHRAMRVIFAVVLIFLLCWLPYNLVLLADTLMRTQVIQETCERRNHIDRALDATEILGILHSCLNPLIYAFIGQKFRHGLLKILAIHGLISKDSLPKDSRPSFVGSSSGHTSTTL
# [2] = AUC (0 to infinity) in ICR mouse at 3 mg/kg, iv measured upto 48 hrs; type: ADME, organism-based; parameters: route intravenous, dose 3 mg/kg, time <=48; conditions: in vivo
# [3] = AUC (0 to infinity) in ICR mouse at 30 mg/kg, po measured upto 48 hrs; type: ADME, organism-based; parameters: route oral, dose 30 mg/kg, time <=48; conditions: in vivo, 48 h
# [4] = Oral bioavailability in ICR mouse at 30 mg/kg measured upto 48 hrs; type: ADME, organism-based; conditions: in vivo
# [5] = Cmax in ICR mouse at 30 mg/kg, po measured upto 48 hrs; type: ADME, organism-based; parameters: route oral, dose 30 mg/kg, time <=48; conditions: in vivo
# [6] = Half life in ICR mouse at 3 mg/kg, iv measured upto 48 hrs; type: ADME, organism-based; conditions: in vivo
# [7] = Clearance in ICR mouse at 3 mg/kg, iv measured upto 48 hrs; type: ADME, organism-based; conditions: in vivo
# [8] = Cmax in ICR mouse at 3 mg/kg, iv measured upto 48 hrs; type: ADME, organism-based; parameters: route intravenous, dose 3 mg/kg, time <=48; conditions: in vivo
# [9] = Apparent volume of distribution in ICR mouse at 30 mg/kg, po measured upto 48 hrs; type: ADME, organism-based; conditions: in vivo
# [10] = Half life in ICR mouse at 30 mg/kg, po measured upto 48 hrs; type: ADME, organism-based; conditions: in vivo, 30 mg/kg, 48 h
# Neutrophil = experiment: In vivo antagonist activity at CXCR2 in carrageenan-induced C57BL/6 mouse air pouch inflammation model assessed as reduction in neutrophil infiltration into air pouch at 10 mg/kg, po bid administered after 3 days of carrageenan treatment for 3 days; type: functional, organism-based; conditions: time 3.0 day
# [11] = AUC (0 to t) in ICR mouse at 3 mg/kg, iv measured upto 48 hrs; type: ADME, organism-based; parameters: route intravenous, dose 3 mg/kg, time <=48; conditions: in vivo
# [12] = Clearance in ICR mouse at 30 mg/kg, po measured upto 48 hrs; type: ADME, organism-based; conditions: in vivo, 30 mg/kg, 48 h
# [13] = Tmax in ICR mouse at 30 mg/kg, po measured upto 48 hrs; type: ADME, organism-based; conditions: in vivo
# [14] = AUC (0 to t) in ICR mouse at 30 mg/kg, po measured upto 48 hrs; type: ADME, organism-based; parameters: route oral, dose 30 mg/kg, time <=48; conditions: in vivo
# [15] = Apparent volume of distribution in ICR mouse at 3 mg/kg, iv measured upto 48 hrs; type: ADME, organism-based; conditions: in vivo, read-out: Vz
# [16] = Tmax in ICR mouse at 3 mg/kg, iv measured upto 48 hrs; type: ADME, organism-based; conditions: in vivo
IC50 [1],Compound,other results
1020 nM,O=C(Nc1ccccc1F)Nc1ccc2c(c1O)S(=O)(=O)CCC2,
> 10000 nM,O=C(Nc1ccc(Br)cc1)Nc1ccc2c(c1O)S(=O)(=O)CCC2,
78 nM,O=c1c(Nc2ccccc2Br)c(Nc2ccc3c(c2O)S(=O)(=O)CC=C3)c1=O,
320 nM,O=C(Nc1ccccc1F)Nc1ccc2c(c1O)S(=O)(=O)CC=C2,
3450 nM,O=c1c(Nc2ccc3c(c2O)S(=O)(=O)CCC3)c(Nc2cccc(F)c2Cl)c1=O,
5920 nM,O=C(Nc1ccc(Cl)cc1Cl)Nc1ccc2c(c1O)S(=O)(=O)CC=C2,
210 nM,O=C(Nc1ccc2c(c1O)S(=O)(=O)CCC2)Nc1cccc(Cl)c1Cl,
9990 nM,O=c1c(Nc2ccc3c(c2O)S(=O)(=O)CCC3)c(Nc2cccc(Cl)c2Cl)c1=O,
150 nM,O=c1c(Nc2ccccc2Br)c(Nc2ccc3c(c2O)S(=O)(=O)CCC3)c1=O,
13 nM,NS(=O)(=O)c1c(Cl)ccc(NC(=O)Nc2cccc(Cl)c2Cl)c1O,AUC(0-inf) [2]: 3160 ng·h/mL; AUC [3]: 11072.08 ng·h/mL; bioavailability [4]: 35%; Cmax [5]: 3810 ng/mL; half-life [6]: 216 min; clearance [7]: 16.3 mL/min/kg; Cmax [8]: 8350 ng/mL; Vz [9]: 14.09 L/kg; t1/2 [10]: 215 min; Activity (Neutrophil): Active; AUC(0-t) at 48 h [11]: 3160 ng·h/mL; CL [12]: 453.5 mL/min/kg; Tmax [13]: 18 min; AUC(0-t) at 48 h [14]: 11100 ng·h/mL; Vd [15]: 5.07 L/kg; Tmax [16]: 3.6 min
1600 nM,O=C(Nc1ccccc1C(F)(F)F)Nc1ccc2c(c1O)S(=O)(=O)CC=C2,
> 10000 nM,O=C(Nc1ccc(Cl)cc1Cl)Nc1ccc2c(c1O)S(=O)(=O)CCC2,
200 nM,O=c1c(Nc2ccccc2Cl)c(Nc2ccc3c(c2O)S(=O)(=O)CC=C3)c1=O,
190 nM,Cc1ccc(NC(=O)Nc2ccc3c(c2O)S(=O)(=O)CC=C3)cc1,
19000 nM,O=C(Nc1ccc2c(c1O)S(=O)(=O)CC=C2)Nc1cccc(F)c1Cl,
140 nM,O=C(Nc1ccccc1Br)Nc1ccc2c(c1O)S(=O)(=O)CCC2,
210 nM,O=C(Nc1ccccc1Cl)Nc1ccc2c(c1O)S(=O)(=O)CCC2,
